In patent US9937194B1, “Compounds and methods for treating inflammatory diseases” (priority 2009, dated 2018):

What was measured:
[1] = system: HDAC activity; assay: H2O2-induced reduction of HDAC activity in PMA-differentiated U937 cells; format: cell-based, human; details: PMA-differentiated U937
In short: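 U937 cells PMA-differentiated for 3 days, pretreated with compound for 20 min, then exposed to 200 μM H2O2 for 4 h with Fluor de Lys substrate present. Whole-cell HDAC activity measured fluorimetrically. Data expressed as fold change versus H2O2-only control, mean of four experiments ± SEM.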

[2] = system: HDAC2 mRNA; assay: Cigarette smoke extract-induced reduction of HDAC2 mRNA in A549 cells; format: cell-based, human; details: A549; CSE
Procedure: Preparations of cigarette smoke extract. To prepare the cigarette smoke extract, two full-strength Marlboro cigarettes (filters removed; Phillip Morris USA, Richmond, Va.) are combusted through a modified 60-ml syringe apparatus, and the smoke passed through 20 ml of DMEM medium. Each cigarette generally yields five draws of the syringe (to the 60-ml mark), with each individual draw taking approximately 10 s to complete. Cigarette smoke extract is then passed through a 0.20-μm filter to sterilize and remove particulate matter and is used immediately unless otherwise stated.
Quantitative RT-PCR. Total RNA extraction and reverse transcription are performed using an RNeasy kit (QIAGEN, Crawley, UK) and a High-Capacity cDNA Reverse Transcription Kits (Applied Biosystems, Foster City, Calif.). Gene transcript level of HDAC2 (HS00231032_M1, Applied Biosystems, California, USA) and the house-keeping gene, guanine nucleotide binding protein beta polypeptide-2-like 1 (GNB2L1) (HS00272002_M1, Applied Biosystems) are quantified by real-time PCR using a TaqMan® Gene Expression Master Mix (Applied Biosystems) on a Rotor-Gene 6000 (Corbett Research, Cambridge, UK). Transcripts are analysed by the delta (D) CT method and variations in cDNA concentrations between different samples were corrected using GNB2L1.
Effects of macrolides on cigarette smoke extract-induced (CSE-induced) reduction of HDAC2 mRNA in A549 cells. Cells pretreated with compounds described herein for 30 min are exposed to CSE (0.15 O.D.) for 1 hr. The cells are washed twice and incubated with medium only for 4 hrs. Data are expressed as % reduction from baseline (left) or % increase from baseline under H2O2. Values represent means of three experiments±SEM. Example 33 reverses cigarette smoke extract-induced (CSE-induced) reduction of HDAC2 mRNA expression in A549 cells at concentrations of about 10 μM or greater, and with statistical significance of p<0.05 versus treatment with CSE only (one-way ANOVA with post hoc test, n=3) at doses of about 30 μM or greater.

[3] = system: Akt; assay: H2O2-induced phosphorylation of Akt in PMA-differentiated U937 cells (western blot); format: cell-based, human; details: PMA-differentiated U937; H2O2 1 mM 30 min
In short: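 PMA-differentiated U937 macrophage-like cells pretreated with compound 20 min, then stimulated with 1 mM H2O2 for 30 min. pAkt measured by western blot densitometry, normalised to total protein and expressed as fold change versus H2O2-only control; mean ± SEM of 3–4 experiments.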

[4] = system: IL-8; assay: LPS-induced IL-8 release in PMA-differentiated U937 cells (ELISA); format: cell-based, human; details: LPS 100 ng/ml 4 hrs
In short: (§1)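 PMA-differentiated U937 macrophage-like cells were pretreated with compound for 1 hr, then stimulated with LPS (100 ng/ml) for 4 hrs. Released IL-8 and TNFα were quantified by sandwich ELISA. Values are means of three experiments ± SEM.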

[5] = system: TNFα; assay: LPS-induced TNFα release in PMA-differentiated U937 cells (ELISA); format: cell-based, human; details: LPS 100 ng/ml 4 hrs
In short: as §1

[6] = system: U937 cells; assay: H2O2-induced steroid insensitivity in U937 cells (dexamethasone IC50 on TNFα-induced IL-8); format: cell-based, human; details: highest concentration tested (100 μM); H2O2 200 μM
Procedure: Cytokine ELISA. LPS-induced IL-8, TNFα concentrations and TNFα-induced IL-8 concentrations are determined by sandwich ELISA according to the manufacturer's instructions (R&D Systems Europe). IC50 values for dexamethasone on IL-8 production are calculated using the computer program Prism 4.0 (GraphPad Software Inc., San Diego, Calif.) as a marker for steroid sensitivity.
Restoration of steroid sensitivity. U937 cells: U937 are treated with oxidative stress (H2O2, 200 μM or 0.15 dilution CSM (cigarette smoke conditioned medium)) and 4 hours later, stimulated with TNFα (10 ng/ml) in the presence of dexamethasone (10^−11-10^−6M). Supernatant and cells are collected 24 hrs after stimulation and IL-8 is measured by conventional ELISA. As the index of corticosteroid sensitivity, IC50 of dexamethasone is calculated. Test compounds are treated 20 min before oxidative stress treatment.
Effects of compounds on H2O2-induced steroid insensitivity in U937 cells. Cells stimulated with H2O2 (200 μM) overnight are incubated with compounds described herein for 30 min under H2O2 (200 μM) exposure. The cells are treated with dexamethasone (10^−11 to 10^−6 M) for 20 min, followed by the TNFα stimulation overnight. TNFα-induced IL-8 release is evaluated by ELISA and IC50 values for dexamethasone on IL-8 production are calculated using Prism. Data are expressed as fold changes against positive control treated with H2O2 only. Values represent means of four experiments±SEM. H2O2 exposure reduces dexamethasone sensitivity by approximately 4 fold based on calculated IC50 values of TNFα-induced IL-8 production.

[7] = system: A/J mice exposed to LPS; assay: Anti-inflammatory activity in vivo: A/J mice exposed to LPS intranasally; details: intranasal, 1 hr before LPS challenge
[8] = system: U937 cells; details: H2O2-induced insensitivity on TNF-α-induced IL-8 production; cited from earlier work
[9] = system: PBMCs from COPD patients; details: PBMCs obtained from COPD patients; cited from earlier work
[10] = system: MMP9; details: macrophages in sputum of COPD patients; cited from earlier work
[11] = system: HDAC2; details: reduced by oxidative stress; cited from earlier work

CC[C@H]1OC(=O)[C@H](C)[C@@H](O[C@H]2C[C@@](C)(OC)[C@@H](O)[C@H](C)O2)[C@H](C)[C@@H](O[C@@H]2O[C@H](C)C[C@H](N(C)C)[C@H]2O)[C@](C)(O)C[C@@H](C)C(=O)[C@H](C)[C@@H](O)[C@]1(C)O [ERY, erythromycin]
restoration of HDAC activity compared with Example 33 ([1]; H2O2 200 μM 4 hrs): only at much higher doses than Example 33
HDAC activity reached compared with untreated controls ([1]; H2O2 200 μM, comparators at highest doses tested): only restore HDAC activity to levels comparable to untreated controls
reversal of HDAC mRNA expression reduction compared with Example 33 [2]: only at much higher doses than Example 33
inhibition of Akt phosphorylation compared with Example 33 [3]: at comparable concentrations
inhibition of LPS-induced IL-8 release compared with Example 33 [4]: did not show any inhibition at any concentration tested
inhibition of LPS-induced TNFα release compared with Example 33 [5]: did not show any inhibition at any concentration tested
restoration of dexamethasone sensitivity [6]: None of ERY, CLR, or AZI restored dexamethasone sensitivity
anti-inflammatory action in LPS-exposed A/J mice [7]: have anti-inflammatory action
restoration of corticosteroid sensitivity (reported) [8]: restore corticosteroid sensitivity
restoration of corticosteroid sensitivity (reported) [9]: restore corticosteroid sensitivity
MMP9 expression (reported) [10]: inhibited MMP9 expression
HDAC2 promoter activity and protein expression (reported) [11]: restore HDAC2 promoter activity and protein expression
